Experimental data from US11083773B2, “Peptides that block leukocyte recruitment and methods of use” (ARCH CANCER THERAPEUTICS, INC., priority 2014, dated 2021).

Columns and labels:
BALB/c mice = assay: LPS intoxication model of sepsis; assay type: in vivo; conditions: versus control-bacteriophage/LPS and LPS only
Description: An intoxication model of sepsis was used to assess peptide efficacy on sepsis. In intoxication models, mice are challenged with a noninfectious, proinflammatory compound, such as LPS or killed bacteria. In the present study, protocols were used that followed Andonegui G, et al., J Clin Invest. 2009 July; 119(7):1921-30; and Yipp B G, et al. J Immunol. 2002 May 1; 168(9):4650-8.
Briefly, purified LPS isolated from E. Coli was used to initiate endotoxemia response in BALB/c mice 6-8 weeks old. Mice were injected with LSALT bacteriophage that contain lethal amounts of LPS endotoxin.
When the animals started to show signs of distress they were sacrificed by euthanasia. All mice treated in this group (5 out of 5) had to be sacrificed due to a septic response.

[1] = test system: 4T1 murine breast cancer cells; assay: Intrasplenic injection of 4T1 murine breast cancer cells, liver metastasis; assay type: in vivo, mouse; conditions: 4-week post injection; control phage or LSALT expressing phage
[2] = test system: 70 W human melanoma cells; assay: Tail vein injection of 70 W human melanoma cells expressing luciferase, lung tumor burden; assay type: in vivo, mice
Procedure: FIG. 13A-13F show the tumor burden in lung tissue from mice injected via tail vein with 1×10^6 70 W human melanoma cells expressing luciferase, with or without prior injection of 50 μM or 500 μM LSALT peptide (13A-13C) and representative images of lungs with visible melanotic lung […] in mice injected via tail vein with 1×10^6 70 W human melanoma cells expressing luciferase, with or without prior injection of 50 μM or 500 μM LSALT peptide mice (13D-13F).
FIG. 14A-14D show Xenogen images of lungs from mice injected via tail vein with human melanoma cells expressing luciferase with (14B) and without (14A) pretreatment with LSALT; and Xenogen images of lungs from mice injected treated as described for FIGS. 13A and 13B, and in the presence (14D) and absence (14C) of neutrophil depletion using anti-Ly6G/GRI antibody.
In one treatment study, […] melanoma cells expressing luciferase were injected via tail vein with or without prior injection of 50 μM or 500 μM LSALT peptide.
Animals were treated as above in the absence or presence of Neutrophil depletion using Anti-Ly6G/GR1, and the animals were imaged with the Xenogen light system.

[3] = test system: 143B human osteosarcoma cells; assay: Tail vein injection of 143B human osteosarcoma cells, mouse model for metastasis; assay type: in vivo
Procedure: 5×10^5 143B human osteosarcoma cells stably expressing luciferase were injected into the tail vein of animals 5 mins after IV delivery of PBS or LSALT-peptide. Animals were sacrificed after 3 weeks. Lungs were then harvested, fixed in formalin, and embedded in paraffin. […] Metastatic lesions were visualized by staining human 143B osteosarcoma cells with anti-human nucleolin (brown). […] PBS n=4. LSALT-peptide n=6.
In a similar model, 5×10^5 143B human osteosarcoma cells stably expressing luciferase were injected into the tail vein of animals 5 mins after IV delivery of PBS or LSALT-peptide. Animals were imaged weekly using bioluminescence imaging (Xenogen, IVIS 200).

[4] = prior injection of 50 μM or 500 μM, 4 weeks post-injection

For “LSALTPSPSWLKYKAL (listed as Homo sapiens) [LSALT peptide]”, the “neutrophil adhesion in sinusoids / neutrophil recruitment to the liver (FIG. 17A)” value (BALB/c mice) was “reduced neutrophil recruitment to the liver”, the “FIG. 12 result, printed as number of neutrophils present in liver sinusoid tissue” value [1] was “significantly reduced the number of neutrophils present in liver sinusoid tissue” and the “tumor burden by Xenogen imaging with neutrophil depletion (FIGS. 14C, 14D)” value ([2]; neutrophil depletion using Anti-Ly6G/GR1) was “the same result was seen”. The “tumor burden in the lungs, histology and excised lungs (FIG. 13)” value [2, 4] was “the least tumor burden”, the “visible melanotic lung nodules (FIG. 13)” value [2, 4] was “least frequently” and the “tumor burden by Xenogen imaging (FIGS. 14A, 14B)” value ([2]; without neutrophil depletion) was “progressively less tumor burden”. The “metastatic burden in mouse liver by bioluminescence (FIG. 16)” value ([3]; IV delivery 5 mins before cells, 3 weeks post injection) was “reduction in bioluminescence”, the “number of metastatic lesions in mouse lung (FIG. 15)” value ([3]; IV delivery 5 mins before cells, 3 weeks, histological sections) was “reduction in metastatic lesions” and the “metastatic spread of osteosarcoma cell line” value ([3]; mouse, in vivo) was “blocks the metastatic spread of an osteosarcoma cell line to the liver”.
